# Reference: patent publication US8134015B2, “Compound inhibiting in vivo phosphorous transport and medicine containing the same” (Kyowa Hakko Kirin Co., Ltd., priority 2003, dated 2012)
# pIC50: −log10 of the molar value. Where a name gives a salt, the structure may show the parent alone.
# Target: T1, rat NaPi-2b (Rattus norvegicus, UniProt Q9JJ09)
# T1 construct: expressed in transfected cells; host or cells: Xenopus oocytes injected with cRNA
# T1 sequence (Q9JJ09 1-695): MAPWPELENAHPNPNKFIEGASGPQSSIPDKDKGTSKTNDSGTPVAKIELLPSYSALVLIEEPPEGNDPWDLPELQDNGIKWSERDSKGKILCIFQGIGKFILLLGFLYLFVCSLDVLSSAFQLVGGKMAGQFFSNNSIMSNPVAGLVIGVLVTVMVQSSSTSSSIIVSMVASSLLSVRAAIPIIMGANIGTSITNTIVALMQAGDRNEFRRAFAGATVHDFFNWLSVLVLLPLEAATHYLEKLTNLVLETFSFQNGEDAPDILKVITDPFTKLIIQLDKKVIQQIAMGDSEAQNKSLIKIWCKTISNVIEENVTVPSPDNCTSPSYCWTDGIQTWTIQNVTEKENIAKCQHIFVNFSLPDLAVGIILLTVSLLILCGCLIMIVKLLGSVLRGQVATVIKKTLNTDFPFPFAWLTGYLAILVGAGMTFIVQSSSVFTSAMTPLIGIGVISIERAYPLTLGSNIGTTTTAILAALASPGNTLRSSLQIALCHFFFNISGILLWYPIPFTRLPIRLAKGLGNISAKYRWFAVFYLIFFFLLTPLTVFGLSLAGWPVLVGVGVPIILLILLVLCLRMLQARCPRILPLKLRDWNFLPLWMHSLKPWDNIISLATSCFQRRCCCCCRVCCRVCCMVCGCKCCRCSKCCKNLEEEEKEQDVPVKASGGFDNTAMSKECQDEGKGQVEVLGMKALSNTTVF
# Test: Sodium-dependent phosphate uptake of Xenopus oocytes which expressed NaPi-2b (32P)
# Type: cell-based
# Details: Xenopus oocytes expressing rat NaPi-2b, 32P radioactive phosphorus; read-out: IC50 (phosphate uptake inhibitory activity)
# Outline: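 Rat NaPi-2b cloned from small-intestine cDNA; cRNA injected into Xenopus oocytes, expression for 2 days. Phosphate uptake inhibition measured with 32P; percent inhibition at 300 μM and 100 μM read from the same inhibition curve.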
row,Structure (SMILES),pIC50
1,"Cc1ccc(/C=N/NC(=O)c2c(NC(=O)c3cccc(CN(CC(C)O)CC(C)O)c3)sc(C)c2C)cc1C (stereo not shown) [Compound 844, 3-{[Bis-(2-hydroxy-propyl)-amino]-methyl}-N-[3-(3,4-dimethyl-benzylidene-hydrazinocarbonyl)-4,5-dimethyl-thiophen-2-yl]-benzamide]",> 5.52
2,"Cc1sc(NC(=O)c2cccc(CN(CC(C)O)CC(C)O)c2)c(C(=O)N/N=C/c2ccc(Cl)c(C(F)(F)F)c2)c1C (stereo not shown) [Compound 847, 3-{[Bis-(2-hydroxy-propyl)-amino]-methyl}-N-[3-(4-chloro-3-trifluoromethyl-benzylidene-hydrazinocarbonyl)-4,5-dimethyl-thiophen-2-yl]-benzamide]",> 5.52
3,"COc1ccc(/C=N/NC(=O)c2c(NC(=O)c3cccc(CN(CC(C)O)CC(C)O)c3)sc(C)c2C)cc1 (stereo not shown) [Compound 848, 3-{[Bis-(2-hydroxy-propyl)-amino]-methyl}-N-[3-(4-methoxy-benzylidene-hydrazinocarbonyl)-4,5-dimethyl-thiophen-2-yl]-benzamide]",5.66
4,"CCN(CC)CCN(CCN(CC)CC)Cc1cccc(C(=O)Nc2sc3c(c2C(=O)N/N=C/c2ccc(Cl)c(C(F)(F)F)c2)CCCC3)c1 [Compound 849, 3-{[Bis-(2-diethylamino-ethyl)-amino]-methyl}-N-[3-(4-chloro-3-trifluoromethyl-benzylidene-hydrazinocarbonyl)-4,5,6,7-tetrahydro-benzo[b]thiophen-2-yl]-benzamide]",> 5.52
5,"CCN(CC)CCN(CCN(CC)CC)Cc1cccc(C(=O)Nc2sc3c(c2C(=O)N/N=C/c2ccc(OC)cc2)CCCC3)c1 [Compound 850, 3-{[Bis-(2-diethylamino-ethyl)-amino]-methyl}-N-[3-(4-methoxy-benzylidene-hydrazinocarbonyl)-4,5,6,7-tetrahydro-benzo[b]-thiophen-2-yl]-benzamide]",5.51
6,"Cc1csc(NC(=O)c2cccc(CN(CC(C)O)CC(C)O)c2)c1C(=O)N/N=C/c1ccc(Cl)c(C(F)(F)F)c1 (stereo not shown) [Compound 851, 3-{[Bis-(2-hydroxy-propyl)-amino]-methyl}-N-[3-(4-chloro-3-trifluoromethyl-benzylidene-hydrazinocarbonyl)-4-methyl-thiophen-2-yl]-benzamide; hydrochloride]",5.87
7,"COc1ccc(/C=N/NC(=O)c2c(C)csc2NC(=O)c2cccc(CN(CC(C)O)CC(C)O)c2)cc1 (stereo not shown) [Compound 852, 3-{[Bis-(2-hydroxy-propyl)-amino]-methyl}-N-[3-(4-methoxy-benzylidene-hydrazinocarbonyl)-4-methyl-thiophen-2-yl]-benzamide; hydrochloride]",> 6.00
8,"CC(O)CN(Cc1cccc(C(=O)Nc2ccc(F)cc2C(=O)N/N=C/c2ccc(Cl)c(C(F)(F)F)c2)c1)CC(C)O (stereo not shown) [Compound 853, 3-{[Bis-(2-hydroxy-propyl)-amino]-methyl}-N-[2-(4-chloro-3-trifluoromethyl-benzylidene-hydrazinocarbonyl)-4-fluoro-phenyl]-benzamide; hydrochloride]",5.67
9,"COc1ccc(/C=N/NC(=O)c2cc(F)ccc2NC(=O)c2cccc(CN(CC(C)O)CC(C)O)c2)cc1 (stereo not shown) [Compound 854, 3-{[Bis-(2-hydroxy-propyl)-amino]-methyl}-N-[4-fluoro-2-(4-methoxy-benzylidene-hydrazinocarbonyl)-phenyl]-benzamide; hydrochloride]",5.88
10,"CCN(CC)CCN(CCN(CC)CC)Cc1cccc(C(=O)Nc2sc3c(c2C(=O)N/N=C/c2ccc(Cl)c(C(F)(F)F)c2)CCCC3)c1 [Compound 855, 3-{[Bis-(2-diethylamino-ethyl)-amino]-methyl}-N-[3-(4-chloro-3-trifluoromethyl-benzylidene-hydrazinocarbonyl)-4,5,6,7-tetrahydro-benzo[b]thiophen-2-yl]-benzamide; hydrochloride]",5.76
11,"CCN(CC)CCN(CCN(CC)CC)Cc1cccc(C(=O)Nc2sc3c(c2C(=O)N/N=C/c2ccc(OC)cc2)CCCC3)c1 [Compound 856, 3-{[Bis-(2-diethylamino-ethyl)-amino]-methyl}-N-[3-(4-methoxy-benzylidene-hydrazinocarbonyl)-4,5,6,7-tetrahydro-benzo[b]thiophen-2-yl]-benzamide; hydrochloride]",5.75
12,"CC(O)CN(Cc1cccc(C(=O)Nc2ccc(F)cc2C(=O)N/N=C/c2ccc(Cl)c(C(F)(F)F)c2)c1)CC(C)O (stereo not shown) [Compound 857, 3-{[Bis-(2-hydroxy-propyl)-amino]-methyl}-N-[2-(4-chloro-3-trifluoromethyl-benzylidene-hydrazinocarbonyl)-4-fluoro-phenyl]-benzamide]",5.93
13,"O=C(Nc1ccc(N2CCCCC2)cc1C(=O)N/N=C/c1ccc(F)cc1)c1cccc(CN2CCN(CCO)CC2)c1 [Compound 866, N-[2-(4-Fluoro-benzylidene-hydrazinocarbonyl)-4-piperidin-1-yl-phenyl]-3-[4-(2-hydroxy-ethyl)-piperazin-1-ylmethyl]-benzamide]",5.72
14,"O=C(Nc1ccc(N2CCCCC2)cc1C(=O)N/N=C/c1cccc(F)c1)c1cccc(CN2CCN(CCO)CC2)c1 [Compound 867, N-[2-(3-Fluoro-benzylidene-hydrazinocarbonyl)-4-piperidin-1-yl-phenyl]-3-[4-(2-hydroxy-ethyl)-piperazin-1-ylmethyl]-benzamide]",5.65
15,"O=C(Nc1ccc(N2CCCCC2)cc1C(=O)N/N=C/c1ccc(Cl)c(C(F)(F)F)c1)c1cccc(CN2CCN(CCO)CC2)c1 [Compound 868, N-[2-(4-Chloro-3-trifluoromethyl-benzylidene-hydrazinocarbonyl)-4-piperidin-1-yl-phenyl]-3-[4-(2-hydroxy-ethyl)-piperazin-1-ylmethyl]-benzamide]",> 6.52
16,"COc1ccc(/C=N/NC(=O)c2cc(N3CCCCC3)ccc2NC(=O)c2cccc(CN3CCN(CCO)CC3)c2)cc1 [Compound 869, 3-[4-(2-Hydroxy-ethyl)-piperazin-1-ylmethyl]-N-[2-(4-methoxy-benzylidene-hydrazinocarbonyl)-4-piperidin-1-yl-phenyl]-benzamide]",5.18
17,"Cc1ccc(/C=N/NC(=O)c2cc(N3CCCCC3)ccc2NC(=O)c2cccc(CN3CCC(O)CC3)c2)cc1C [Compound 870, N-[2-(3,4-Dimethyl-benzylidene-hydrazinocarbonyl)-4-piperidin-1-yl-phenyl]-3-(4-hydroxy-piperidin-1-ylmethyl)-benzamide]",6.28
18,"Cc1ccc(/C=N/NC(=O)c2cc(N3CCCCC3)ccc2NC(=O)c2cccc(CN3CCC(O)CC3)c2)cc1 [Compound 871, 3-(4-Hydroxy-piperidin-1-ylmethyl)-N-[2-(4-methyl-benzylidene-hydrazinocarbonyl)-4-piperidin-1-yl-phenyl]-benzamide]",6.00
19,"O=C(Nc1ccc(N2CCCCC2)cc1C(=O)N/N=C/c1ccc(F)cc1)c1cccc(CN2CCC(O)CC2)c1 [Compound 872, N-[2-(4-Fluoro-benzylidene-hydrazinocarbonyl)-4-piperidin-1-yl-phenyl]-3-(4-hydroxy-piperidin-1-ylmethyl)-benzamide]",> 5.52
20,"O=C(Nc1ccc(N2CCCCC2)cc1C(=O)N/N=C/c1cccc(F)c1)c1cccc(CN2CCC(O)CC2)c1 [Compound 873, N-[2-(3-Fluoro-benzylidene-hydrazinocarbonyl)-4-piperidin-1-yl-phenyl]-3-(4-hydroxy-piperidin-1-ylmethyl)-benzamide]",6.18
21,"O=C(Nc1ccc(N2CCCCC2)cc1C(=O)N/N=C/c1ccc(Cl)c(C(F)(F)F)c1)c1cccc(CN2CCC(O)CC2)c1 [Compound 874, N-[2-(4-Chloro-3-trifluoromethyl-benzylidene-hydrazinocarbonyl)-4-piperidin-1-yl-phenyl]-3-(4-hydroxy-piperidin-1-ylmethyl)-benzamide]",> 6.52
22,"COc1ccc(/C=N/NC(=O)c2cc(N3CCCCC3)ccc2NC(=O)c2cccc(CN3CCC(O)CC3)c2)cc1 [Compound 875, 3-(4-Hydroxy-piperidin-1-ylmethyl)-N-[2-(4-methoxy-benzylidene-hydrazinocarbonyl)-4-piperidin-1-yl-phenyl]-benzamide]",5.28
23,"CCN(CC)CCSCc1cccc(C(=O)Nc2ccc(N3CCCCC3)cc2C(=O)N/N=C/c2ccc(C)c(C)c2)c1 [Compound 876, 3-(2-Diethylamino-ethylsulfanylmethyl)-N-[2-(3,4-dimethyl-benzylidene-hydrazinocarbonyl)-4-piperidin-1-yl-phenyl]-benzamide]",> 5.52
24,"CCN(CC)CCSCc1cccc(C(=O)Nc2ccc(N3CCCCC3)cc2C(=O)N/N=C/c2ccc(F)cc2)c1 [Compound 877, 3-(2-Diethylamino-ethylsulfanylmethyl)-N-[2-(4-fluoro-benzylidene-hydrazinocarbonyl)-4-piperidin-1-yl-phenyl]-benzamide]",> 6.52
25,"CCN(CC)CCSCc1cccc(C(=O)Nc2ccc(N3CCCCC3)cc2C(=O)NN=Cc2ccc(OC)cc2)c1 [Compound 879, 3-(2-Diethylamino-ethylsulfanylmethyl)-N-[2-(4-methoxy-benzylidene-hydrazinocarbonyl)-4-piperidin-1-yl-phenyl]-benzamide]",5.43
